Results as given in paper PMC12386934, “Characteristics and Potential of KSL, KSL-W, and Dadapin-1 Antimicrobial Peptides for Preventing Infections of Orthopedic Prosthetic Devices: Identifying the Most Robust Candidate” (International Journal of Molecular Sciences, 2025).
≈ marks a conversion by molar mass, not a printed value. Where a SMILES comes first, the peptide text is derived from it.

What was measured:
Format in all cases: cell-based
[1] = tested on: E. faecalis cra4024 (EF 01)
Source text: (§1) The experimental scheme reported in Figure 6 helped to simplify and optimize the in vitro testing of the antibacterial activity of the different AMPs. The initial transparent microtiter plate for the determination of the minimum inhibitory concentration (MIC) by optical density (OD) measurement was conveniently used as a starting point not only for the alterative determination of the MIC by luminescence but also for the minimum bactericidal concentration (MBC) and for the minimum biofilm inhibitory concentration (MBIC), as explained below. For every test peptide, at least three independent experiments were performed on each bacterial strain per test condition (100% MHB and 20% MHB). The sole exception to this rule was when MIC values were on rare occasions found to be greater than 500 µg/mL. Under these circumstances, two consecutive experiments were performed to confirm the results. In this case, the antibacterial activity was considered insignificant and the third experiment was generally considered unnecessary.
(§2) The antibacterial properties of the test AMPs were assayed under two distinct conditions of bacterial culture: (i) with bacteria cultured in undiluted Mueller–Hinton II Broth (MHB II) and (ii) with bacteria cultured in diluted MHB II as earlier described in Campoccia et al.. Briefly, a few colonies of each bacterial strain, taken from overnight cultures on Mueller–Hinton Agar plates (MHA, PO50007A, ThermoScientific, Thermo Fisher Scientific, Segrate, Italy), were resuspended in Mueller–Hinton II Broth (MHB II, 24107, Liofilchem, Roseto degli Abruzzi, Italy), either undiluted or at a 20% dilution in deionized water. The concentration of bacteria was adjusted to approximately 10^8 CFU/mL, as estimated by optical density reading at 625 nm, using a Hewlett Packard G1103A spectrophotometer (Waldbronn, Germany). The bacterial suspension was further diluted 1:100 in 100% or 20% MHB II.
(§3) Serial 1:2 dilutions of all the test peptides were prepared in sterile deionized water starting from a stock solution of 1 mg/mL. Microtiter plates (96-Well CytoOne® Plate, CC7672-7596, Starlab S.r.l., Milano, Italy) were prepared by adding a volume of 100 µL of inoculum to 100 µL of treatment. Each AMP dilution was assayed in triplicate; each microplate included triplicate wells for the blank (100 µL of sterile distilled water and 100 µL of sterile MHB II), and 3 to 6 wells for reference control of 100% growth (100 µL of sterile deionized water and 100 µL of MHB II inoculated with the bacterium). Positive controls were performed in triplicate wells with 100 µL of a 10 mg/mL gentamicin solution (G1272, Sigma Aldrich, Milan, Italy) and with 100 µL of a solution containing 10,000 units/mL of penicillin and 10,000 µg/mL of streptomycin (penicillin–streptomycin, 15140-122, Life Technologies, Monza, Italy).
(§4) After a 1-day incubation at 37 °C, the MIC was determined by two distinct methods: (1) optical density measurement and (2) bioluminescence reading. In the first case, the optical density of the microtiter plates was read directly at a wavelength of 600 nm and the MIC was estimated from the curves obtained by plotting the OD measurements. For the bioluminescence reading, after gentle resuspension, 100 µL of each treated culture was transferred to a new 96-well non-treated plate (236105/237105, Life Technologies, Monza, Italy) and the metabolic activity was determined by the kit Bac-Titer Glo Microbial Cell Viability Assay (G8231, Promega Italia S.r.l, Milan, Italy). Optical density and bioluminescence were read by a Modulus II multifunction plate reader (Turner BioSystems, Sunnyvale, CA, USA) or, alternatively, by an Infinite M Plex (Tecan Group Ltd., Männedorf, Switzerland). As earlier described in [24], in the case of luminescence, the MIC was identified from the curves of growth inhibition as the first concentration leading to a 1-log reduction in bacterial growth (i.e., 90% growth inhibition). […]

[2] = tested on: E. faecalis cra4033 (EF 02)
Source text: as §1, §2, §3, §4

[3] = tested on: S. aureus cra2198 (SA 02)
Source text: as §1, §2, §3, §4

[4] = tested on: S. epidermidis cra4029 (SE 02)
Source text: as §1, §2, §3, §4

E. coli cra4038 (EC) [5] = tested on: E. coli cra4038 (EC)
Source text: as §1
as §2, with “II. […]” for “II.”
(§5) For assessing the MBC, 10 μL of bacterial suspensions was taken from wells corresponding to MIC, 2× MIC, and 4× MIC and then plated on MHA plates. […] The MBC was determined as the lowest dilution causing absence of bacterial colonies growth on the plate.
(§6) In order to assess the extent of the interference of the culture medium composition with the antibacterial activity of the three peptides, a “Rate of Abatement” of the bactericidal properties (RoA) was calculated using the following formula (Equation (1)):RoA = MBCMHB/MBC20% MHB(1)
(§7) RoA indicates the fold increases in the MBC when tested in undiluted medium […], i.e., with maximal interference of broth polyanionic substances, with respect to diluted medium […]. […] A more versatile measure to express the loss of activity was calculated as follows. […]

[6] = tested on: E. faecalis cra4033 (EF 02); remark: listed apart in the source
Source text: as §1
as §2, with “II. […]” for “II.”
as §5, §6, §7

[7] = tested on: S. epidermidis cra4029 (SE 02); remark: listed apart in the source
Source text: as §1
as §2, with “II. […]” for “II.”
as §5, §6, §7

E. coli cra4038 (EC) [8] = tested on: E. coli cra4038 (EC); remark: listed apart in the source
Source text: as §1, §2, §3
(§8) The wells of the microplate, initially used for the determination of the MIC, were rinsed twice with 220 µL of phosphate-buffered solution (PBS) to remove loosely attached and planktonic bacteria. A total of 100 µL of fresh PBS and 100 µL of Bac-Titer Glo solution (G8231, Promega Italia S.r.l., Milan, Italy) were added to each well. After a 10 min incubation, a volume of 100 µL was transferred to a new microplate for luminescence determination as described above. As a general rule, the MBIC value was identified as the concentration at which a reduction of at least a log in the metabolic activity was observed.

[9] = tested on: E. faecalis cra4024 (EF 01); remark: listed apart in the source
Source text: as §1, §2, §3, §8

[10] = tested on: P. aeruginosa cra3840 (PA 02)
Source text: as §1, §2, §3, §8

[11] = tested on: S. aureus ATCC 25923 (SA 00); conditions: ATCC 25923, 24 h
Source text: as §1, §2, §3, §8

[12] = tested on: S. aureus cra2198 (SA 02); conditions: cra2198 (SA 02, 24 h)
Source text: as §1, §2, §3, §8

[13] = tested on: S. aureus cra4030 (SA 01); conditions: cra4030 (SA 01, 24 h)
Source text: as §1, §2, §3, §8

[14] = tested on: S. epidermidis cra4029 (SE 02); conditions: cra4029 (SE 02, 24 h)
Source text: as §1, §2, §3, §8

[15] = tested on: S. epidermidis cra4034 (SE 01); conditions: cra4034 (SE 01, 24 h)
Source text: as §1, §2, §3, §8

entire panel of strains = assay: MBC, all strains of the panel; conditions: undiluted MHB II, re-tested plating 10 μL
Protocol: For assessing the MBC, 10 μL of bacterial suspensions was taken from wells corresponding to MIC, 2× MIC, and 4× MIC and then plated on MHA plates. After one day of incubation at 37 °C, the agar plates were examined for bacterial growth. The MBC was determined as the lowest dilution causing absence of bacterial colonies growth on the plate.

CC(C)C[C@H](NC(=O)CN)C(=O)N[C@@H](CC(C)C)C(=O)N[C@@H](CCCNC(=N)N)C(=O)N[C@@H](C)C(=O)N[C@@H](CO)C(=O)N[C@@H](CO)C(=O)N[C@@H](CCCCN)C(=O)N[C@@H](Cc1c[nH]c2ccccc12)C(=O)NCC(=O)N[C@@H](CCCNC(=N)N)C(=O)N[C@@H](CCCCN)C(=O)N[C@@H](Cc1ccc(O)cc1)C(=O)N[C@@H](Cc1ccc(O)cc1)C(=O)N[C@H](C(=O)N[C@@H](CC(=O)O)C(=O)N[C@@H](CC(C)C)C(=O)N[C@@H](C)C(=O)NCC(=O)N[C@@H](CS)C(=O)N[C@@H](C)C(=O)N[C@@H](CCCCN)C(=O)N[C@@H](C)C(=O)O)C(C)C [Dadapin-1] (H-GLLRASSKWGRKYYVDLAGCAKA-OH)
MIC [1]: >500 µg/mL
MIC [2]: >500 µg/mL
MIC [3]: 15.63 µg/mL (≈ 6.22 µM)
MIC [4]: > 500 µg/mL
MBC (E. coli cra4038 (EC) [5]): 31.25 to 62.5 µg/mL
MBC [6]: >500 µg/mL
MBC [7]: 15.63 µg/mL (≈ 6.22 µM)
LR, Log10 reduction in bacterial metabolism for a given MBIC (E. coli cra4038 (EC) [8]; cra4038 (EC)): 2 LR
MBIC (E. coli cra4038 (EC) [8]; cra4038 (EC, 24 h)): 15.63–31.25 (31.25) 2LR: 31.25 μg/mL
LR, Log10 reduction in bacterial metabolism for a given MBIC ([9]; cra4024 (EF 01)): 3 LR
MBIC ([9]; cra4024 (EF 01, 24 h)): >500 µg/mL
LR, Log10 reduction in bacterial metabolism for a given MBIC ([10]; cra3840 (PA 02)): 3 LR
MBIC ([10]; cra3840 (PA 02, 24 h)): >500 µg/mL
MBIC [11]: 250 to 500 µg/mL
MBIC [12]: 500 µg/mL
MBIC [13]: 7.81 to 15.63 µg/mL
MBIC [14]: > 500 µg/mL
MBIC [15]: 3.91 to 7.81 µg/mL
MBC (entire panel of strains): exceeded 500 μg/mL
